This is an account of results in US10131642B1, “Aldosterone synthase inhibitors” (Boehringer Ingelheim International GmbH, priority 2015, dated 2018).

The target in assay [1] is cortisol synthase (CYP11B1) (Macaca fascicularis, UniProt A0A2K5ULY1). Briefly: Inhibition of cortisol synthesis (cynomolgus adrenal mitochondria, cortisol by mass spectrometry). It counts as biochemical, cynomolgus monkey. The conditions noted are these: cynomolgus adrenal gland mitochondria, 11-deoxycortisol as substrate, cortisol measured as product; read-out: CYP11B1 Inhibition IC50. The gist of the method: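 Cynomolgus adrenal mitochondria supplied CYP11B1 (150 units) with 11-deoxycortisol as substrate, plus NADPH; cortisol product measured by mass spectrometry. Activity expressed as % of compound-free NADPH control across compound concentrations; IC50 from 4-parameter logistic fit.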

Assay [2] has as its target T1, aldosterone synthase (CYP11B2) (Macaca fascicularis, UniProt A0A2K5UPL9).
T1 construct: cynomolgus adrenal gland mitochondria as the source of aldosterone synthase (CYP11B2); from tissue; host or cells: cynomolgus monkey adrenal gland mitochondria
T1 sequence (A0A2K5UPL9 1-503): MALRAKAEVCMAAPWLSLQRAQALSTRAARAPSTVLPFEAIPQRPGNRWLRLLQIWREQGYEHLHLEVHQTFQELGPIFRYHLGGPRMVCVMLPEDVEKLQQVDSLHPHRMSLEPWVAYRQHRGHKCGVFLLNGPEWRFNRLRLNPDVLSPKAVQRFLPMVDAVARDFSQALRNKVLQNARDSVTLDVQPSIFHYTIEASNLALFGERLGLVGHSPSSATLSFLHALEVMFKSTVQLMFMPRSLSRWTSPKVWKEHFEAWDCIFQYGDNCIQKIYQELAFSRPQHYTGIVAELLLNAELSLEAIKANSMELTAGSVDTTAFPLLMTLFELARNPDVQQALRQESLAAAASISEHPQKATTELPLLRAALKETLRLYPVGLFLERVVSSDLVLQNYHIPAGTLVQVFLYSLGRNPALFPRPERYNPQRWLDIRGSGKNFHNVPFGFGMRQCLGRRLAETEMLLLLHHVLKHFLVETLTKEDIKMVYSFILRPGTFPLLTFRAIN
Briefly: Inhibition of aldosterone synthase (cynomolgus adrenal mitochondria, aldosterone by mass spectrometry). It counts as biochemical, cynomolgus monkey. The conditions noted are these: cynomolgus adrenal gland mitochondria, 2 μM corticosterone substrate, 90 minutes at 37° C. In a few lines:
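Cynomolgus adrenal mitochondria (50 units CYP11B2 activity) with 2 μM corticosterone in 100 mM potassium phosphate pH 7.4, 1% DMSO. Started with 1 mM NADPH, 90 min at 37° C. Aldosterone measured by mass spectrometry; IC50 from 4-parameter logistic fit, NADPH-free reactions as blank.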

As usually defined, the IC50 is the point on the concentration scale where inhibition reaches its midpoint.

As for `CC1(C)Cc2noc(Cc3ccc(C(N)=O)cc3)c2C(=O)O1` [Cpd 95, 4-(6,6-Dimethyl-4-oxo-6,7-dihydro-4H-pyrano[4,3-c]isoxazol-3-ylmethyl)-benzamide], the half-maximal inhibitory concentration (IC50) in assay [1] was 16 µM; in assay [2] it was 71 nM.
Take `CN(CCO)C(=O)c1ccc(Cc2onc3c2C(=O)OC(C)(C)C3)cc1` [Cpd 96, 4-(6,6-Dimethyl-4-oxo-6,7-dihydro-4H-pyrano[4,3-c]isoxazol-3-ylmethyl)-N-(2-hydroxy-ethyl)-N-methyl-benzamide]: the figures for the 50% inhibitory concentration (IC50) in assay [1] and in assay [2] were 10 µM and 73 nM, respectively.
For the compound `CN1CCN(C(=O)c2ccc(Cc3onc4c3C(=O)OC(C)(C)C4)cc2)CC1=O` [Cpd 97, 6,6-Dimethyl-3-[4-(4-methyl-3-oxo-piperazine-1-carbonyl)-benzyl]-6,7-dihydro-pyrano[4,3-c]isoxazol-4-one], the IC50 worked out at 11 µM in assay [1] and 170 nM in assay [2].
